Experimental data taken from article PMC2843403 (Bioorganic & medicinal chemistry, 2010).

Assays:
PKCδ C1B [1] = target: T1, PKCδ C1B (Mus musculus, UniProt P28867); experiment: Fluorescence quenching binding to PKCδ C1B; details: fit of fluorescence quenching of PKCδ C1B (2 μM), Fig. 3
Target sequence in this assay (P28867 231-280): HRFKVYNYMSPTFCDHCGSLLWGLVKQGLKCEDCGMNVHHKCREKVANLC

Solubility = type: physicochemical
PKCδ C1B [2] = target: T1, PKCδ C1B; experiment: Emission maximum of ligand in presence of PKCδ C1B; type: binding; details: buffer versus presence of C1B subdomain (590 to 560 nm)
Target sequence in this assay (P28867 231-280 limits assumed): as the sequence (P28867 231-280) above

Question: Which Hill coefficient (PKCδ C1B [1]) does the source give for `CCCCCCCCCCCCCC(=O)O[C@@H]1[C@@H](C)[C@@]2(O)[C@@H](C=C(CO)C[C@]3(O)C(=O)C(C)=C[C@@H]23)[C@@H]2C(C)(C)[C@]12OC(C)=O` [TPA, 12-O-tetradecanoylphorbol-13-acetate, reference compound] here?
Answer: 1.8

Question: Which Solubility in water (Solubility) does the source give for `COc1cc(/C=C/C(=O)CC(=O)/C=C/c2ccc(O)c(OC)c2)ccc1O` [Compound 1, Curcumin] here?
Answer: poorly soluble

Question: And the Hill coefficient (PKCδ C1B [1])?
Answer: 1.6

Question: For `CCCCCCCCCCCCCCCCOc1ccc(/C=C/C(O)=C/C(=O)/C=C/c2ccc(O)c(OC)c2)cc1OC` [Compound 4, (1E, 4Z, 6E)-7-(4-(hexadecyloxy)-3-methoxyphenyl)-5-hydroxy-1-(4-hydroxy-3-methoxyphenyl)hepta-1,4,6-trien-3-one], which “Blue shift of emission maximum” value (PKCδ C1B [2]) is on record?
Answer: 30 nm

Question: And the Hill coefficient (PKCδ C1B [1])?
Answer: 2
